Test results as given in patent US20080312169A1, “Cosmetic use of D-ribose” (priority 2007, published 2008).

Key:
[1] = test system: NHDF; assay: ATP production by NHDF in culture under conditions of hypoxia; format: cell-based, human; conditions: 0.05% D-ribose, 24 h pretreatment, after six hours of severe hypoxia (oxygen<2%)
Experimental: The inventors have measured the effect of D-ribose on the production of ATP by NHDF in culture, under conditions of hypoxia. The cells used were cultivated in flasks of normal human epidermal cells (NHDF) in a medium of DMEM with 10% fetal bovine serum, incubated at 37° C. in an atmosphere of 5% CO2, and 95% air until 80% confluent. On Day 1, a first measure of the level of ATP was determined on the non-treated, non-stressed NHDF. Two sets of six duplicates were 15 pretreated for 24 hours with 0.05% ribose or not treated as control. At Day 2, before the induction of hypoxia, one set of treated and control cells was harvested to measure the level of ATP. The cells of the second set were suspended, the medium renewed with DMEM with 10% fetal bovine serum with HEPES buffer in order to maintain the pH within physiological conditions during hypoxia and with EDTA in order to prevent the agglutination of the cells. The cells were held in an incubator held at 37° C., in which the atmosphere had been previously replaced by nitrogen. The cells were incubated for six hours in a condition of severe hypoxia (oxygen<2%) in the presence of 0.05% D-ribose versus the non-treated control. Recovery of the cells and measurement of the ATP was followed in the treated and control cells. […]

[2] = test system: normal human dermal fibroblasts (NHDF); assay: Oxygen consumption (mitochondrial and cytoplasmic respiration) of NHDF in culture, BD Oxygen Biosensor System; format: cell-based; conditions: 0.05% D-ribose, two hours of contact, six wells
Experimental: The inventors measured the effect of D-ribose on mitochondrial and cytoplasmic respiration of normal human dermal fibroblasts (NHDF) in culture. The cells were cultivated at 37° C. under an atmosphere of 5% CO2, in a culture solution of DMEM supplemented with 10% bovine fetal serum. […] Thus, D-ribose augments the consumption of oxygen in the cells, and consequently, the metabolism of cutaneous cells and tissues.

Question: Which results are given for `O=C[C@H](O)[C@H](O)[C@H](O)CO` [D-ribose]?
Answer: recovery of the ATP levels, of the base levels [1]: about 19%; augmentation of cytoplasmic respiration over control [2]: 37%; augmentation of mitochondrial respiration over control [2]: 31%
